ChEMBL document CHEMBL1157515, “Discovery of a novel class of 2-ureido thiophene carboxamide checkpoint kinase inhibitors” (Bioorg Med Chem Lett, 2008)

How the values were obtained:
[1] = target: T1, Serine/threonine-protein kinase Chk1 (Homo sapiens, UniProt O14757); test: Inhibition of Chk1
T1 sequence (O14757 whole entry): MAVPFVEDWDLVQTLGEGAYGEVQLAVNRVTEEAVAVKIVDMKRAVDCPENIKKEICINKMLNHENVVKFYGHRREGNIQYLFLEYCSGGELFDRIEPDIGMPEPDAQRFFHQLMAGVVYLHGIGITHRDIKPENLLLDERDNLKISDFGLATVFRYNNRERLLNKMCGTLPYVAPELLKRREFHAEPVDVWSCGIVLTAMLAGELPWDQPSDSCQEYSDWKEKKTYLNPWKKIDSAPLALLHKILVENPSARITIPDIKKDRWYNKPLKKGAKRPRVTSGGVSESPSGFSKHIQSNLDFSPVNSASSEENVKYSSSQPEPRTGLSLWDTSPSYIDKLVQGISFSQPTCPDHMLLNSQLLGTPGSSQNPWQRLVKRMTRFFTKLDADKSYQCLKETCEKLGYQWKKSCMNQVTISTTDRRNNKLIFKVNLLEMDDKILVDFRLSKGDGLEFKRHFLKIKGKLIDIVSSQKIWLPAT

HT-29 = test: Abrogation of camptothecin induced cell cycle arrest at G2/M phase in human HT29 cells; type: functional, cell-based
[2] = Clearance in dog; type: ADME, organism-based, Canis lupus familiaris; details: in vivo
[3] = target: Voltage-gated inwardly rectifying potassium channel KCNH2 (Homo sapiens, UniProt Q12809); test: Inhibition of human ERG
[4] = Solubility of the compound; type: physicochemical
[5] = Half life in mouse; type: ADME, organism-based; details: in vivo
[6] = Half life in dog; type: ADME, organism-based, Canis lupus familiaris; details: in vivo
[7] = Clearance in mouse; type: ADME, organism-based; details: in vivo
[8] = Inhibition of CYP; type: ADME
[9] = Lipophilicity, log D of the compound; type: physicochemical; details: octanol/water
[10] = Oral bioavailability in dog; type: ADME, organism-based, Canis lupus familiaris; details: in vivo

Sequence of Voltage-gated inwardly rectifying potassium channel KCNH2 (Q12809 whole entry): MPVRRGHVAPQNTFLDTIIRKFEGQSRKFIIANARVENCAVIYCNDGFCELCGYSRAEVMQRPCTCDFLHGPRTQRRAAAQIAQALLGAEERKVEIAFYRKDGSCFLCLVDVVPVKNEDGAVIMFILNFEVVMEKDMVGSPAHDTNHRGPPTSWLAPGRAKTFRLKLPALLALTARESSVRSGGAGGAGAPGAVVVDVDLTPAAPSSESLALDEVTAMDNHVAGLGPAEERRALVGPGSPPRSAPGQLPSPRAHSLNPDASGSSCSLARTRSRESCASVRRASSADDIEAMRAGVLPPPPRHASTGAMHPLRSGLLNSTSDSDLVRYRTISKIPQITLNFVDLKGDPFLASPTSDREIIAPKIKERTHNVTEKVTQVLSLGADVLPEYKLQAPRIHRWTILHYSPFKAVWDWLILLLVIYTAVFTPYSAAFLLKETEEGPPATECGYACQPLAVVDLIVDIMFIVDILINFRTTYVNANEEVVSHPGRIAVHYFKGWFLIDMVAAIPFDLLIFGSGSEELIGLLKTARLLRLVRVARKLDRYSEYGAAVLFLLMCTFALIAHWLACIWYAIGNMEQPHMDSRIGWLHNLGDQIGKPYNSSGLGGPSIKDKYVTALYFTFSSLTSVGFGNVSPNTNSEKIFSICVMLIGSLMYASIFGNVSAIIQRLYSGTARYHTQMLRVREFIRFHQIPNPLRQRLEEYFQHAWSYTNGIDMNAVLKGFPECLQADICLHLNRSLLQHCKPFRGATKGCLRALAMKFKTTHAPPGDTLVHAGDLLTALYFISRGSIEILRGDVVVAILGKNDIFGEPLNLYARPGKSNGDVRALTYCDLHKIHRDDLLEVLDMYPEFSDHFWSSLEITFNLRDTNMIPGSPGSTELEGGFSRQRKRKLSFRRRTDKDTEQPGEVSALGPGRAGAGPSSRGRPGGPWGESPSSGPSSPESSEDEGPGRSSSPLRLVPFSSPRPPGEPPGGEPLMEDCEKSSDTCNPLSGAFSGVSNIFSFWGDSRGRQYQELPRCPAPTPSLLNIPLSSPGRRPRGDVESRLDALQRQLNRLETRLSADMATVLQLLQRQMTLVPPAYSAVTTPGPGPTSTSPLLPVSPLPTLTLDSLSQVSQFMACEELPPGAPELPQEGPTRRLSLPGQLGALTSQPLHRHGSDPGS

| Structure (SMILES) | IC50 [1] [nM] | EC50 (HT-29; Homo sapiens, HT-29) [nM] | also measured |
| --- | --- | --- | --- |
| CCN(CC)CCOc1ccc(-c2cc(C(=O)Nc3cccc(CO)c3)c(NC(N)=O)s2)cc1 | 50 | > 12500 |  |
| NC(=O)Nc1sc(-c2ccccc2)cc1C(=O)NC1CCCCC1 | 3900 |  |  |
| NC(=O)Nc1sc(-c2ccccc2)cc1C(=O)NC1CCCCNC1=O (stereo unspecified) | 23000 | > 13000 |  |
| NC(=O)Nc1sc(-c2ccc(C(=O)N3CCOCC3)cc2)cc1C(=O)N[C@H]1CCCNC1 | 10 | 610 |  |
| NC(=O)Nc1sc(-c2ccsc2)cc1C(=O)N[C@H]1CCCNC1 | 6 | < 9 |  |
| CN(C)CCNC(=O)c1cc(-c2ccccc2)sc1NC(N)=O | 110 | 4100 |  |
| CCN(CC)CCOc1ccc(-c2cc(C(=O)Nc3cccnc3)c(NC(N)=O)s2)cc1 | 100 | > 12500 |  |
| NC(=O)Nc1sc(-c2ccccc2)cc1C(=O)N[C@@H]1CN2CCC1CC2 | 130 |  |  |
| NC(=O)Nc1sc(-c2cccs2)cc1C(=O)N[C@H]1CCCNC1 | 3 | < 8 |  |
| NC(=O)Nc1sc(-c2ccccc2)cc1C(=O)N[C@H]1CCCNC1 |  |  | clearance [2]: 12.8 mL/min/kg; IC50 [3]: > 31600 nM; solubility [4]: > 2000 µM; half-life [5]: 1.5 h; half-life [6]: 5.2 h; clearance [7]: 35.7 mL/min/kg; IC50 [8]: > 10000 nM; logD [9]: 1.28; bioavailability [10]: 78.8% |
| CN1CCN(C(=O)c2cc(-c3ccccc3)sc2NC(N)=O)CC1 | 7100 |  |  |
| COc1ccc(Nc2cc(-c3cccnc3)[nH]n2)cc1OC | 600 |  |  |
| CCN(CC)CCOc1cccc(-c2cc(C(=O)NC3CCCNC3)c(NC(N)=O)s2)c1 (racemic) | 10 | 2600 |  |
| NC(=O)Nc1sc(-c2ccccc2)cc1C(=O)Nc1ccccc1 | 1000 |  |  |
| NC(=O)Nc1sc(-c2ccccc2)cc1C(=O)NC1CCNCC1 | 110 |  |  |
| NC(=O)Nc1sc(-c2ccccc2)cc1C(=O)NCC1CNCCO1 (stereo unspecified) | 300 |  |  |
| NC(=O)Nc1sc(-c2ccccc2)cc1C(=O)NC1CCOCC1 | 2100 |  |  |
| NC(=O)Nc1sc(-c2cccc(C(N)=O)c2)cc1C(=O)N[C@H]1CCCNC1 | 5 | 8100 |  |

| Structure (SMILES) | IC50 [1] [nM] | EC50 (HT-29; Homo sapiens, HT-29) [nM] | also measured |
| --- | --- | --- | --- |
| CCN(CC)CCOc1cccc(-c2cc(C(=O)N[C@H]3CCCNC3)c(NC(N)=O)s2)c1 | < 10 | 1100 |  |
| NC(=O)Nc1sc(-c2ccccc2)cc1C(=O)N[C@@H]1CCCCNC1 | 3 | 110 |  |
| NC(=O)Nc1sc(-c2ccccc2)cc1C(=O)NC1CNCCNC1=O (stereo unspecified) | 110 |  |  |
| NC(=O)Nc1sc(-c2ccccc2)cc1C(=O)N[C@@H]1CCCNC1 |  |  | EC50 (HT-29; ht-29): 1900 nM |
| CC(=O)Nc1cccc(-c2cc(C(=O)N[C@H]3CCCNC3)c(NC(N)=O)s2)c1 | 8 | 1800 |  |
| NC(=O)Nc1sc(-c2cccc(F)c2)cc1C(=O)N[C@H]1CCCNC1 | 11 |  | EC50 (HT-29; ht-29): 20 nM |
| CN1CCC[C@@H](NC(=O)c2cc(-c3ccccc3)sc2NC(N)=O)C1 | 160 | 2300 |  |
| NC(=O)Nc1sc(-c2ccccc2F)cc1C(=O)N[C@H]1CCCNC1 | 9 | 80 |  |
| NC(=O)Nc1sc(-c2ccccc2)cc1C(=O)NC[C@H]1CCCNC1 | 100 | 2100 |  |
| NC(=O)Nc1sc(-c2ccccc2)cc1C(=O)NCc1ccccc1 | > 10000 |  |  |
| NC(=O)Nc1sc(-c2ccc(C(=O)N3CCCCC3)cc2)cc1C(=O)N[C@H]1CCCNC1 | 11 | 130 |  |
| NC(=O)Nc1sc(-c2ccccc2)cc1C(=O)NC[C@@H]1CCCNC1 | 100 | 6200 |  |
| NC(=O)Nc1sc(-c2ccccc2)cc1C(=O)N[C@H]1CN2CCC1CC2 | 980 |  |  |
| NC(=O)Nc1sc(-c2ccccc2)cc1C(=O)N1CCOCC1 | > 30000 |  |  |
| NC(=O)Nc1sc(-c2ccc(C(F)(F)F)cc2)cc1C(=O)N[C@H]1CCCNC1 | 19 | 170 |  |
| NC(=O)Nc1sc(-c2ccncc2)cc1C(=O)N[C@H]1CCCNC1 | 4 |  | EC50 (HT-29; ht-29): 340 nM |
| NC(=O)Nc1sc(-c2cccnc2)cc1C(=O)N[C@H]1CCCNC1 | 6 |  | EC50 (HT-29; ht-29): 300 nM |
| NC(=O)Nc1sc(-c2cccc(Cl)c2)cc1C(=O)N[C@H]1CCCNC1 | 14 | 40 |  |

Second part, led by results:

| IC50 [1] [nM] | EC50 (HT-29; Homo sapiens, HT-29) [nM] | Structure (SMILES) | also measured |
| --- | --- | --- | --- |
| 5000 |  | COc1ccc(-c2cc(C(N)=O)c(NC(N)=O)s2)cc1 |  |
| 360 |  | CNCCOc1ccc(-c2cc(C(N)=O)c(NC(N)=O)s2)cc1 |  |
| 23000 |  | NC(=O)Nc1sc(-c2ccc(OCCOCC3CC3)cc2)cc1C(N)=O |  |
| 6700 |  | COCCOc1ccc(-c2cc(C(N)=O)c(NC(N)=O)s2)cc1 |  |
| 41 | 90 | CN(C)c1ccc(-c2cc(C(=O)N[C@H]3CCCNC3)c(NC(N)=O)s2)cc1 |  |
| 230 |  | NC(=O)Nc1sc(-c2ccc(OCCN3CCCCC3)cc2)cc1C(N)=O |  |
| > 300 |  | CNCc1ccc(-c2cc(C(N)=O)c(NC(N)=O)s2)cc1 |  |
| 41 | 2200 | CS(=O)(=O)Nc1ccc(-c2cc(C(=O)N[C@H]3CCCNC3)c(NC(N)=O)s2)cc1 |  |
| 30 | 960 | NCCNC(=O)c1cc(-c2ccccc2)sc1NC(N)=O |  |
| 13 | 920 | NC(=O)Nc1sc(-c2ccc(N)cc2)cc1C(=O)N[C@H]1CCCNC1 |  |
| 9 | 4300 | CNC(=O)c1ccc(-c2cc(C(=O)N[C@H]3CCCNC3)c(NC(N)=O)s2)cc1 |  |
| 41 |  | CN1CCN(Cc2ccc(-c3cc(C(N)=O)c(NC(N)=O)s3)cc2)CC1 |  |
| 9 | 30 | NC(=O)Nc1sc(-c2ccc(F)cc2)cc1C(=O)N[C@H]1CCCNC1 |  |
| 72 |  | COCCNCc1ccc(-c2cc(C(N)=O)c(NC(N)=O)s2)cc1 |  |
| 5500 |  | CN(CCN)C(=O)c1cc(-c2ccccc2)sc1NC(N)=O |  |
| 37 | 270 | NC(=O)Nc1sc(-c2ccc(CN3CCCCC3)cc2)cc1C(N)=O |  |
| 35 | > 12500 | CCN(CC)CCOc1ccc(-c2cc(C(=O)NC3CCNCC3)c(NC(N)=O)s2)cc1 |  |
| 100 | 580 | CNCCNC(=O)c1cc(-c2ccccc2)sc1NC(N)=O |  |
| 7 | 1200 | NC(=O)Nc1sc(-c2ccc(O)cc2)cc1C(=O)N[C@H]1CCCNC1 |  |

| IC50 [1] [nM] | EC50 (HT-29; Homo sapiens, HT-29) [nM] | Structure (SMILES) | also measured |
| --- | --- | --- | --- |
| 39 |  | NC(=O)Nc1sc(-c2ccc(CNC3CCCC3)cc2)cc1C(N)=O |  |
| 29 |  | COc1ccc(CNCc2ccc(-c3cc(C(N)=O)c(NC(N)=O)s3)cc2)cc1 |  |
| 7 | 60 | CC(=O)c1ccc(-c2cc(C(=O)N[C@H]3CCCNC3)c(NC(N)=O)s2)cc1 |  |
| 10 | 70 | Cc1ccc(-c2cc(C(=O)N[C@H]3CCCNC3)c(NC(N)=O)s2)cc1 |  |
| 10 | 40 | NC(=O)Nc1sc(-c2ccc(Cl)cc2)cc1C(=O)N[C@H]1CCCNC1 |  |
| 31 |  | CN(CCO)Cc1ccc(-c2cc(C(N)=O)c(NC(N)=O)s2)cc1 |  |
| 100 | > 12500 | CCN(CC)CCOc1ccc(-c2cc(C(=O)NC3CCNC3)c(NC(N)=O)s2)cc1 (stereo unspecified) |  |
|  | 17 | CCN(CC)CCOc1ccc(-c2cc(C(=O)NC3CCCNC3)c(NC(N)=O)s2)cc1 (stereo unspecified) |  |
| 9 | 320 | CN(C)C(=O)c1ccc(-c2cc(C(=O)N[C@H]3CCCNC3)c(NC(N)=O)s2)cc1 |  |
| 5 | 3200 | NC(=O)Nc1sc(-c2ccc(C(N)=O)cc2)cc1C(=O)N[C@H]1CCCNC1 |  |
| 4100 |  | COCCOCCOc1ccc(-c2cc(C(N)=O)c(NC(N)=O)s2)cc1 |  |
| 6 | 200 | CS(=O)(=O)c1ccc(-c2cc(C(=O)N[C@H]3CCCNC3)c(NC(N)=O)s2)cc1 |  |
| 2600 |  | NC(=O)Nc1sc(-c2ccc(OC(F)(F)F)cc2)cc1C(N)=O |  |
| 5100 |  | NC(=O)Nc1sc(-c2ccccc2)cc1C(=O)NCCO |  |
| 230 |  | CN(C)CCCOc1ccc(-c2cc(C(N)=O)c(NC(N)=O)s2)cc1 |  |
|  | > 12500 | CN(C)CCOc1ccc(-c2cc(C(N)=O)c(NC(N)=O)s2)cc1 |  |
| 6 | 80 | N#Cc1ccc(-c2cc(C(=O)N[C@H]3CCCNC3)c(NC(N)=O)s2)cc1 |  |
| 17 |  | CC1(C)CCCC(C)(C)N1Cc1ccc(-c2cc(C(N)=O)c(NC(N)=O)s2)cc1 |  |
